Results as given in US12070505B2, “Targeted peptide-drug conjugates” (priority 2021, dated 2024).

How the values were obtained:
[1] = test system: MDA-231WT cells; assay: LC50 by CCK-8 assay, wild-type cells; assay type: cell-based; details: MDA-231WT (wild type); FIG. 10: after 72 h
Method: Dox-resistant Cell Lines. Acquired resistance to Dox was induced in wild-type triple-negative breast cancer cell line MDA-MB-231 (MDA-231WT) as described before (Aliabadi, H. M.; et al. J. Control. Release 172:219-228, 2013, which is incorporated herein by reference). Briefly, MDA-231WT cells were exposed to Dox at an initial concentration of 0.05 μg/mL for one week or three consecutive expansions (whichever came later). […] Resistance induction was confirmed via calculation of LC50 following a sigmoidal effect model explained elsewhere (Bousoik, E.; et al. Front. Oncol. 9:1070, 2019, which is incorporated herein by reference) and determination of P-glycoprotein (P-gp) expression.
The cytotoxicity of the peptide-Dox conjugate in resistant triple-negative breast cancer and uterine sarcoma cell lines (MDA-231R, MDA-231WT, and MES-SA/MX2) was evaluated by a Cell Counting 8 (CCK8) KIT. The peptide-Dox conjugate was added to the cells in triplicate with different concentrations (0-40 μM). Cells were incubated at 37° C. and 5% CO2 for 24 h. After this incubation period, 10 μL of CCK8 reagent was added to each well, and plates were incubated at the same conditions for 2 h. The absorbance of each well was determined at 450 nm using the SpectraMAX M5 microplate reader. After subtracting the signal from blank wells that contain medium without cells in the plate with CCK-8 solution added, the results were normalized to cells treated with normal saline (considered as 100%)
Efficiency in Dox-Resistant Cells. In order to compare the cytotoxic effect of free and peptide-conjugated Dox in Dox-resistant cells, MDA-231WT (as a Dox-sensitive cell line as control) and MDA-231R and MES-SA/MX2 cells as Dox-resistant cells were exposed to a wide range of Dox (or Dox-equivalent for the peptide-conjugated drug) concentrations (0.05-40 μM). Cells were seeded in 96-well plates with approximately 50% confluency and were incubated for 24 h in 37° C. and 5% CO2. […] The cell viability was determined after this incubation period using the CCK-8 assay, as explained above. […]

[2] = test system: gastric adenocarcinoma cells (AGS); assay: Cytotoxicity, MTS cell viability assay, AGS; details: 5 μM
Method: In Vitro Cytotoxicity Assay of Peptide-Drug Conjugates. […] In brief, CCRF-CEM cells were seeded at 50,000 cells in 0.1 mL per well in 98-well plates. In the case of other cell lines, the cells were seeded at 5,000 cells (0.1 mL per well in 96-well plates). […] Dox (5 μM) was used as a positive control, while water and cell culture medium were used as negative controls. The compounds were dissolved in water; water was used as a negative control to normalize the data. After the incubation period, MTS reagent (20 μL) was added to each well. The incubation was continued for 2 h. Cell viability was then determined by determination of the fluorescence intensity at 490 nm using a SpectraMax M2 microplate spectrophotometer. The percentage of cell viability was then calculated using the following equation: [(OD value of cells treated with the compound)−(OD value of culture medium)]/[(OD value of control cells)−(OD value of culture medium)]×100% (FIGS. 6-9).

[3] = test system: H9C2 cells; assay: Confocal microscopy uptake in H9C2 (Example 2); assay type: cell-based, rat; details: 5 μM, 24 h
Method: Confocal Microscopy. MDA-MB-231, SK-OV-3, MES-SA/MX2, and H9C2 cells (7×10^4 cells/well) were seeded with a medium on a coverslip 24 h prior to the experiment in six well plates. After 24 h, the medium was changed with opti-MEM. The cells were treated with Dox and peptide-Dox conjugate (5 μM) in opti-MEM for 24 h. After 24 h incubation, the media were removed, and cells were washed three times with PBS in each well. Then, the cells were fixed with 3.7% formaldehyde for 10 min, followed by washing three times with PBS (pH 7.6) for 5 min. DAPI (40 μL) for staining the nuclei was placed on a microscope slide, and it was covered with the coverslip with the cell-attached side facing down. The slides were left standing horizontally in a dark place with airflow to allow faster drying. The cells were photographed using Nikon Instruments A1 Confocal Laser Microscope Series and NIS-Elements software (AR 4.30.02, 64 bit). The scan mode was selected as Galvano. The magnification and resolution were set at 40× and 1024, respectively.

[4] = test system: H9C2 cells; assay: Fluorescence/confocal microscopy uptake in heart cells (Example 1); assay type: cell-based, rat; details: 5 μM
Method: Fluorescence and Confocal Microscopy. CCRF-CEM, SKOV-3, and H9C2 cells were seeded with EMEM media overnight on coverslips in six-well plates. Then the medium was removed and washed with opti-MEM. The cells were treated with Dox and the peptide-Dox conjugate (5 μM) in opti-MEM for different time intervals (3, 24, and 72 h) at 37° C. After 3 h incubation, the media containing the compound were removed, followed by washing with PBS three times. Then coverslips were placed on a drop of mounting medium on a microscope slide with the cell-attached side facing down. Fluorescence microscopy and laser scanning confocal microscopy were carried out using a Keyence Microscope System and Nikon AIR system, respectively. The cells were imaged using rhodamine and phase contrast channels.
In a separate experiment, confocal microscopy was used as follows. (i) Internalization of [R5K]W7A-Dox conjugate vs. free Dox was determined in Dox-resistant MDA-MB-231 and ME5-SA/MX2 cells as compared to the wild-type MDA-MB-231 cells. The cellular internalization was evaluated in Dox-sensitive and -resistant cells to study the effect of overexpression of the MDR efflux proteins on the Dox internalization by the peptide conjugates. […] (ii) Internalization of Dox and [R5K]W7A-Dox was determined into normal heart muscle cells. […]

COc1cccc2c1C(=O)c1c(O)c3c(c(O)c1C2=O)C[C@@](O)(C(=O)CO)C[C@@H]3O[C@H]1C[C@H](N)[C@H](O)[C@H](C)O1 [Dox, doxorubicin, reference compound]
CC50 [1]: 450 nM
Cell Viability (%) after 24 h [2]: 54 ± 2%
Cell Viability (%) after 72 h [2]: 13 ± 3%
reduction of cell survival ([2]; 24 h): 46%
reduction of cell survival/viability ([2]; 72 h): 87%
uptake in heart cells (confocal microscopy, words) [3]: high uptake
uptake in heart cells (microscopy, words) [4]: significant uptake
